# Laboratory results taken from US12128084B2, “Use of PAYCS in regulation of intestinal flora, metabolites, and brain neurotransmitters” (Sericulture and Agri-Food Research Institute, Guangdong …, priority 2022, dated 2024).
# What was measured:
# Assay type in all cases: in vivo
# intestinal microflora = assay: 16S rRNA analysis of intestinal microflora of amnesic mice
# Source text: The symbols * and ** represent P<0.05 and P<0.01, respectively.
# [1] = tested on: mice with amnesia induced by scopolamine; assay: behavioral test (jumping test, swimming test; training part and test part) in scopolamine-induced amnesic mice
# Experimental: The mice were tested for a jumping test (FIG. 1A), swimming speed (FIG. 1), swimming distance (FIG. 1C), the number of crossings on the target platform (FIG. 1D), the number of crossings on the target quadrants (FIG. 1E), the escape latency and the error times (FIG. 1F) during the training. In the test part, the swimming distance, the swimming speed, number of crossings on target quadrant (FIG. 1G), the number of crossings on the target platform, and escape latency (H) were determined. In these figures, #: compared with the control group, P<0.05; compared with the control group, P<0.01; *: compared model group, P<0.05; **: compared with the model group, P<0.01.
# FIG. 7 is an experiment designed to evaluate the effect of PAYCS-L (lower dose of SEQ ID NO: 1) and PAYCS-H (higher dose of SEQ ID NO: 1) on learning and memory function in mice with amnesia induced by scopolamine.
# [2] = tested on: IL-1β and TNF-α in liver and serum; assay: liver and serum inflammatory indexes of amnesic mice
# [3] = tested on: MDA, LDH, SOD, GP(x) in liver and serum; assay: liver and serum oxidation indexes of amnesic mice
# brain neurotransmitters = brain neurotransmitters of amnesic mice
# fecal metabolites = fecal metabolites of amnesic mice
# Source text: The scores of variable importance in projection (VIP) for symbol ** and symbol *** are P<0.05, P<0.01, and P<0.001 respectively.
# [4] = PAYCS-H (higher dose), scopolamine-induced amnesic mice
# [5] = scopolamine-induced amnesic mice
substance,measurement,setting,value
Pro-Ala-Tyr-Cys-Ser (PAYCS; sequence of the peptide ProAlaTyrCysSer),relative abundance of Cacteroidaceae,intestinal microflora; 16S rRNA analysis,increased
same,relative abundance of Prevotellaceae,intestinal microflora; 16S rRNA analysis,increased
same,intestinal microorganisms,intestinal microflora; PAYCS-H (higher dose),re-modulates
same,abundance of intestinal microorganism population in amnesic mice,intestinal microflora; PAYCS-L (lower dose),reconstitutes
same,ratio of Bacteroidetes/Firmicutes,"intestinal microflora; PAYCS-L (lower dose), 16S rRNA analysis",changed
same,cognitive function in the test part of the behavioral test,"[1]; PAYCS-H (0.4 g/kg bw, higher dose), 3 weeks of treatment, scopolamine-induced mouse model",better improvement
same,memory enhancement in the training part of the behavioral test,"[1]; PAYCS-L (0.2 g/kg bw, lower dose), 3 weeks of treatment, scopolamine-induced mouse model",better effect of memory enhancement
same,memory deficits in amnesic mice,[1]; PAYCS-L (lower dose),partially reverses
same,scopolamine-induced memory impairment in mice,"[1]; mouse, in vivo",remedies
same,anti-inflammatory effect,[2]; PAYCS-H (higher dose),good
same,inflammatory stress in the liver and serum,[2]; PAYCS-H (higher dose),reverses
same,IL-1β in the liver,[2]; [4],inhibit the increase
same,TNF-α in the liver,[2]; [4],inhibit the increase
same,content of TNF-α in the liver,"[2]; PAYCS-L (lower dose), scopolamine-induced amnesic mice, only TNF-α",reduces
same,antioxidant effect,[3]; PAYCS-H (higher dose),good
same,oxidative stress in the liver and serum,[3]; PAYCS-H (higher dose),reverses
same,liver and serum deficits,"[3]; mouse, in vivo",positive effect
same,LDH level in serum,[3]; [5],significantly reduce
same,MDA level in serum,[3]; [5],significantly reduce
same,SOD content in the liver,[3]; [5],significantly increase
same,neurotransmitters,"brain neurotransmitters; e.g. Ach, GABA, Glu, HisA, Kyn",significantly up-regulated
same,brain neurotransmitters in amnesic mice,"brain neurotransmitters; mouse, in vivo",regulatory effect
same,tryptophan metabolism-related neurotransmitters in the brain,"brain neurotransmitters; mouse, in vivo",improves
same,fecal metabolites,fecal metabolites; PAYCS-H (higher dose),re-modulates
same,memory-related metabolites,fecal metabolites; e.g. Panax notoginseng saponins and cholinergic acid,significantly up-regulated
same,memory-related metabolites,"fecal metabolites; e.g. blumealactone C, thalictroidine, notoginsenoside M, 3a,7a,12b-trihydroxy-5b-cholanoic acid, sequiterpene lactone 326, helenalin, cholic acid",significantly up-regulated
same,fecal metabolites in amnesic mice,"fecal metabolites; mouse, in vivo",regulatory effect
